The text below walks through data of ChEMBL document CHEMBL1144957, “Highly cytotoxic benzo[c]pyrido[2,3,4-kl]acridines” (Bioorg Med Chem Lett, 2003).

For assay [1], the system named is Calf thymus DNA. Nature of the assay: Apparent calf thymus DNA-binding constant. As to conditions: Bos taurus. The assay is classed as nucleic-acid assay.
Assay [2] has as its system Nucleic Acid. Briefly: Binding to DNA as change in thermal denaturation temperature of poly(dAT)2 DNA. The assay is classed as nucleic-acid assay.
Assay [3] has as its system PC-3. Briefly: In vitro inhibitory concentration against human prostate carcinoma PC-3 cell line using MTT assay after incubation for 72 h. As to conditions: PC-3, 72 h. In kind it is functional, cell-based.
In assay [4] the test system is Calf thymus DNA. Nature of the assay: Apparent Calf thymus DNA DNA-binding constant. The assay is classed as nucleic-acid assay. As to conditions: Bos taurus.

As for `COc1cc2nc3c(c4c2c(c1OC)N(C(=O)CN1CCN(C)CC1)CC4)CCc1cc(OCCN)ccc1-3`, the K app in assay [1] is 4.51e+06 M⁻¹. The ΔTm in assay [2] came to 11.9 °C. The molecule further yielded a half-maximal inhibitory concentration (IC50) in assay [3] greater than 1000 nM.

In the case of `COc1cc2nc3c(c4c2c(c1OC)NCC4)CCc1ccccc1-3`, in assay [1], the K app came out at 3600 M⁻¹. In assay [2], the ΔTm was 0 °C. In assay [3], this molecule yielded an IC50 greater than 1000 nM.

For `COc1ccc2c(c1)CCc1c-2nc2cc(OC)c(OC)c3c2c1CCN3C(=O)CN1CCN(C)CC1`, the K app in assay [1] was less than 50000 M⁻¹. The ΔTm in assay [2] amounted to 0.9 °C. Besides, the IC50 in assay [3] was greater than 1000 nM.

On to `COc1cc2nc3c(c4c2c(c1OC)NCC4)CCc1cc(OCCCN)ccc1-3`, for which, in assay [1], the K app worked out at 6.86e+06 M⁻¹. In assay [2], the thermal shift (ΔTm) turned out to be 11.9 °C. In assay [3], this molecule registered an IC50 greater than 1000 nM.

Regarding `COc1cc2nc3c(c4c2c(c1OC)NCC4)CCc1cc(O)ccc1-3`, in assay [1], the K app came out at 1600 M⁻¹. In assay [2], the shift in melting temperature (ΔTm) was 1.1 °C. In assay [3], this molecule came in with an IC50 greater than 1000 nM.

As to `COc1cc2nc3c(c4c2c(c1OC)N(C(=O)CN1CCN(C)CC1)CC4)CCc1cc(OCCCN2CCN(C)CC2)ccc1-3`, the K app in assay [1] turned out to be 3.04e+06 M⁻¹. Moreover, the ΔTm in assay [2] amounted to 0.9 °C. In assay [3], this molecule displayed an IC50 greater than 1000 nM.

For the molecule `COc1cc2nc3c(c4c2c(c1OC)N(C(C)=O)CC4)CCc1cc(OCCN)ccc1-3`, in assay [1], the K app stood at 4200 M⁻¹. Also, the ΔTm in assay [2] is 2.1 °C. In assay [3], the IC50 was greater than 1000 nM.

For the molecule `COc1cc2nc3c(c4c2c(c1OC)N(C(=O)CN1CCN(C)CC1)CC4)CCc1cc(OCCCN)ccc1-3`, the K app in assay [1] came to 6.66e+06 M⁻¹. For the same molecule, the ΔTm in assay [2] was 11.9 °C. In assay [3], the concentration for half-maximal inhibition (IC50) is 5.1 nM.

In turn, `COc1cc2nc3c(c4c2c(c1OC)N(C(C)=O)CC4)CCc1cc(O)ccc1-3` gave an IC50 in assay [3] greater than 1000 nM.

For the molecule `COc1ccc2c(c1)-c1nc3cc(OC)c(OC)c4c3c(c1CC2)CCN4C(=O)CN1CCN(C)CC1`, the K app in assay [1] was less than 50000 M⁻¹. For the same molecule, the ΔTm in assay [2] stood at 0.9 °C. The same molecule showed an IC50 in assay [3] greater than 1000 nM.

In assay [3], `COc1ccc2c(c1)-c1nc3cc(OC)c(OC)c4c3c(c1CC2)CCN4C(C)=O` displayed an IC50 greater than 1000 nM.

In turn, `COc1ccc2c(c1)CCc1c-2nc2cc(OC)c(OC)c3c2c1CCN3C(C)=O` had a half-inhibitory concentration (IC50) in assay [3] greater than 1000 nM.

With `COc1cc2nc3c(c4c2c(c1OC)N(C(C)=O)CC4)CCc1cc(OCCCN2CCN(C)CC2)ccc1-3`, in assay [4], the K app was 2800 M⁻¹. For the same molecule, in assay [2], the ΔTm was found to be 0.9 °C. Further, in assay [3], it took 11.2 nM to reach half-maximal inhibition (IC50).

Regarding `COc1cc2nc3c(c4c2c(c1OC)N(C(C)=O)CC4)CCc1ccccc1-3`, in assay [3], the IC50 is greater than 1000 nM.

For the molecule `COc1cc2nc3c(c4c2c(c1OC)N(C(=O)CN1CCN(C)CC1)CC4)CCc1ccccc1-3`, the K app in assay [1] is less than 50000 M⁻¹. In assay [2], the ΔTm came out at 0 °C. The molecule also registered an IC50 in assay [3] greater than 1000 nM.

As for `COc1cc2nc3c(c4c2c(c1OC)N(C(C)=O)CC4)CCc1cc(OCCCN)ccc1-3`, the K app in assay [1] was 6300 M⁻¹. The ΔTm in assay [2] worked out at 3.1 °C. This molecule returned an IC50 in assay [3] greater than 1000 nM.

Consider `COc1ccc2c(c1)CCc1c-2nc2cc(OC)c(OC)c3c2c1CCN3`, for which the K app in assay [1] was 3000 M⁻¹. Further, the ΔTm in assay [2] came to 0 °C. Also, in assay [3], the IC50 was greater than 1000 nM.

In the case of `COc1cc2nc3c(c4c2c(c1OC)NCC4)CCc1cc(OCCN)ccc1-3`, in assay [1], the K app came to 2.01e+06 M⁻¹. Further, the ΔTm in assay [2] amounted to 12.1 °C. Moreover, in assay [3], the IC50 is greater than 1000 nM.

Consider `COc1ccc2c(c1)-c1nc3cc(OC)c(OC)c4c3c(c1CC2)CCN4`, for which, in assay [1], the K app stood at 2400 M⁻¹. Besides, the ΔTm in assay [2] amounted to 0 °C. Also, the IC50 in assay [3] is greater than 1000 nM.

Take `COc1cc2nc3c(c4c2c(c1OC)NCC4)CCc1cc(OCCCN2CCN(C)CC2)ccc1-3`: in assay [1], the K app was found to be 4.98e+06 M⁻¹. In assay [2], the ΔTm came out at 7.5 °C. The same molecule yielded an IC50 in assay [3] of 19.9 nM.
